In series [1] the test system is formalin induced licking in mice. Put plainly: Formalin induced licking in mice. Conditions: 20 mg/kg p.o.; for Lickings Time, Mean ± SEM: formalin 2.5%, observed 30 min; for Percentage inhibition of licking time: vs control. The class given is in vivo. The source says:
Formalin induced licking in mice was also used to determine analgesic activity of prodrugs 5a–c for further verification. The animals were distributed in to five groups having five mice in each group.

The test system of series [2] is egg albumin induced paw edema in mice. As to the kind of experiment: Egg albumin induced inflammation (paw edema) in mice. It is filed as in vivo. Conditions: 20 mg/kg p.o. The procedure:
Anti-inflammatory potential of synthesized prodrugs 5a–c against egg albumin induced inflammation was also determined for further verification by following the previously reported method. The animals were divided into five groups, each group having five animals. The animals were kept on fasting for 24 h before the beginning of the experiment.

Series [3] concerns platelet aggregation of rat platelet rich plasma induced by ADP or collagen. Put plainly: Ex vivo antiplatelet aggregation activity. Conditions: 100 mg/kg orally, blood 90 min after dosing, ADP 1.3 µmol/L or collagen 32.8 µg/mL; ASA 50 mg/kg positive control. It is filed as in vivo, Sprague-Dawley (SD) rats. The procedure:
The antiplatelet activity of synthesized mutual prodrugs 5a–c was investigated by following the already reported method with some modifications. Male Sprague-Dawley (SD) rats weighing 320–350 g were used after overnight fasting. Rats were orally administered via gastric tube 100 mg/kg of prodrugs solution or 50 mg/kg of acetyl salicylic acid (ASA) suspended in 0.5% carboxymethyl cellulose (CMC) solution. Blood was collected 90 min after sample administration and platelet-rich plasma (PRP) was prepared by centrifugation of blood at 120× g for 15 min and further centrifuged at 850× g for 15 min to prepare platelet-poor plasma (PPP). Platelet aggregation was induced by 32.8 µg/mL of collagen or 1.3 µmol/L of adenosine diphosphate (ADP) in 300 µL of PRP. The PRP (300 µL) was incubated at 37 °C for 2 min in the aggregometer with stirring at 1000 rpm and then stimulated with ADP, collagen, epinephrine and A23187. The changes in light transmission were recorded for 5 min after stimulation. The synthesized mutual prodrugs 5a–c were added to the platelet suspension 3 min before the addition of the aggregating agents. The extent of inhibition of platelet aggregation is expressed as percent inhibition (X) using the following formula: (3) X=((A−B)/A)×100 where A = maximal aggregation of the control; and B = maximal aggregation of sample-treated PRP.

In series [4] the test system is gastrointestinal mucosa (stomach). As to the kind of experiment: Ulcerogenic studies, fasted rat model. The class given is in vivo. The following applies: 20 mg/kg p.o., 4 h after dose, UI = area of ulcer/area of stomach × 100. Here is the method:
The animals were categorized into 6 groups, each has 5 animals. Group 1 was control and given 0.5% carboxymethyl cellulose (CMC) suspension. […] The prodrugs 5a–c (20 mg/kg p.o.) were given to Groups III–V, respectively. Food and water was removed from animal cages 24 h before starting the experiments. After 4 h administration of dose, the animal′s stomach was removed by sacrificing the animal. Stomach was kept on saline soaked filter paper for inspection. The stomach was opened along larger curvature and cleaned with distilled water. The mucous was removed and the area of ulcers and stomachs were noted.
Following formula was used for calculation of Ulcer index (UI); (2) UI=Area of Ulcer/Area of Stomach×100

Series [5] deals with yeast induced pyrexia in mice. As to the kind of experiment: Yeast induced pyrexia in mice. The following applies: for Temperature 1 h, Mean ± SEM / Temperature 2 h, Mean ± SEM / Temperature 3 h, Mean ± SEM: 20 mg/kg p.o.; for Temperature 1 h, Mean ± SEM: 1 h after drug administration; for Temperature 2 h, Mean ± SEM: 2 h after drug administration; for Temperature 3 h, Mean ± SEM: 3 h after drug administration; for Temperature After 24 h of Induction, Mean ± SEM: rectal temperature after yeast, before drug; for Temperature before Induction, Mean ± SEM: rectal temperature, baseline before yeast. It is filed as in vivo. The procedure: Antipyretic activity of prodrugs 5a–c was evaluated against yeast induced pyrexia in mice according to Sakande et al., reported method. Aqueous suspension of brewer′s yeast (20% in distilled water) […] was given subcutaneous to mice. […] Only, those animals were further used in which the pyrexia had been induced. The animals were divided in to five groups having five mice in each group. […] Then animals were treated as described earlier with control, standard and prodrugs 5a–c. Rectal temperature of animals was recorded at 1, 2, 3 and 4 h after drug administration.

Series [6] deals with acetic acid induced writhing in mice. As to the kind of experiment: Acetic acid induced writhing in mice. It is filed as in vivo. Conditions: 20 mg/kg p.o.; for No. of Writhing, Mean ± SEM: 0.6% acetic acid, counted up to 15 min; for Percentage inhibition of writhing: vs control. The procedure:
Koster et al., reported method was adopted for the determination of analgesic activity of the mutual prodrugs 5a–c. The mice were divided in to five groups each group consists of five animals. […] For induction of writhings, acetic acid solution (0.6% in normal saline) was given to every mouse post 30 min of treatment. After 5 min of injection of this solution, the number of writhings was counted up to 15 min.
For orientation: Writhing tests count abdominal constrictions after an irritant is injected.

The subject of series [7] is carrageenan induced paw edema in mice. As to the kind of experiment: Carrageenan induced paw edema in mice. The class given is in vivo. The following applies: 20 mg/kg p.o.; for Inflammation at 1 h (paw thickness), Mean ± SEM / Percent inhibition of paw edema at 1 h: 1 h after carrageenan; for Percent inhibition of paw edema at 1 h / Percent inhibition of paw edema at 2 h / Percent inhibition of paw edema at 3 h / Percent inhibition of paw edema at 4 h: vs control; for Inflammation at 2 h (paw thickness), Mean ± SEM / Percent inhibition of paw edema at 2 h: 2 h after carrageenan; for Inflammation at 3 h (paw thickness), Mean ± SEM / Percent inhibition of paw edema at 3 h: 3 h after carrageenan; for Inflammation at 4 h (paw thickness), Mean ± SEM / Percent inhibition of paw edema at 4 h: 4 h after carrageenan. Here is the method: Anti-inflammatory activity of mutual prodrugs 5a–c was determined by following the already reported method by slight modification against carrageenan induced paw edema in mice. The animals were distributed into 5 groups each having five mice. The mice used for the experiment were kept on fasting for 24 h before the starting of experiment. […] The paw volume was measured at 0, 1, 2, 3 and 4 h after the administration of carrageenan by using vernier caliper. (1) Percent inhibition (%) = 100 (1−X/Y) where X = mean increase in paw thickness of treated mice; and Y = mean increase in paw thickness of control mice.
For orientation: Carrageenan injected into the paw causes an acute inflammation.

With `CC(C)Cc1ccc([C@H](C)C(=O)OCC(=O)Oc2ccc3ccc(=O)oc3c2)cc1` [5c, (S)-((2-oxo-2H-chromen-7-yloxy)carbonyl) methyl 2-(4-isobutylphenyl) propanoate], in series [1], the “Lickings Time, Mean ± SEM” value was 1.31 ± 0.07 and the “Percentage inhibition of licking time” value was determined as 53.71%. For the same compound, the “Inflammation at 0 h (paw thickness), Mean ± SEM” value in series [2] (0 h after egg albumin) came to 4.60 ± 0.33 mm. Also, the “Inflammation at 1 h (paw thickness), Mean ± SEM” value (“Inflammation at 1 h … Mean ± SEM” for short) in series [2] (1 h after egg albumin) worked out at 3.12 ± 0.06 mm. In addition, in series [2] (1 h after egg albumin, vs control), the “Percent inhibition of paw edema at 1 h” value is given as 29.09%. In addition, the “Inflammation at 2 h (paw thickness), Mean ± SEM” value (shortened to “Inflammation at 2 h … Mean ± SEM”) in series [2] (2 h after egg albumin) was determined as 3.02 ± 0.06 mm. The “Percent inhibition of paw edema at 2 h” value in series [2] (2 h after egg albumin, vs control) was determined as 37.08%. In addition, the “Inflammation at 3 h (paw thickness), Mean ± SEM” value (“Inflammation at 3 h … Mean ± SEM” below) in series [2] (3 h after egg albumin) was 2.92 ± 0.07 mm. The “Percent inhibition of paw edema at 3 h” value in series [2] (3 h after egg albumin, vs control) is on record as 44.06%. For the same compound, in series [3], the “Inhibition of platelet aggregation” value was “most potent inhibitory effects”. In addition, the “Ulcer Index (Mean±SEM)” value in series [4] came out at 1.61 ± 0.58. Besides, in series [5], the “Temperature 1 h, Mean ± SEM” value is 98.35 ± 0.05 °F; the “Temperature 2 h, Mean ± SEM” value is given as 97.65 ± 0.15 °F; the “Temperature 3 h, Mean ± SEM” value was 97.25 ± 0.08 ^ns °F; the “Temperature After 24 h of Induction, Mean ± SEM” value is given as 102.1 ± 0.96 °F. For the same compound, in series [5], the “Temperature before Induction, Mean ± SEM” value is recorded as 98.95 ± 0.04 °F. Further, in series [6], the “No. of Writhing, Mean ± SEM” value is listed as 18.25 ± 0.85 and the “Percentage inhibition of writhing” value amounted to 50.94%. The “Inflammation at 0 h (paw thickness), Mean ± SEM” value in series [7] (0 h after carrageenan) was 4.32 ± 0.04 mm. Further, in series [7], the “Inflammation at 1 h … Mean ± SEM” value stood at 4.22 ± 0.04 mm; the “Percent inhibition of paw edema at 1 h” value is listed as 4.09%; the “Inflammation at 2 h … Mean ± SEM” value was determined as 4.05 ± 0.02 mm; the “Percent inhibition of paw edema at 2 h” value turned out to be 12.14%. Besides, in series [7], the “Inflammation at 3 h … Mean ± SEM” value stood at 3.80 ± 0.04 mm; the “Percent inhibition of paw edema at 3 h” value is given as 21.64%; the “Inflammation at 4 h (paw thickness), Mean ± SEM” value was determined as 3.60 ± 0.04 mm; the “Percent inhibition of paw edema at 4 h” value came out at 28.99%.
Regarding `CC(C)Cc1ccc([C@H](C)C(=O)O)cc1` [Dexibuprofen, S-(+)-ibuprofen, reference compound], in series [1], the “Lickings Time, Mean ± SEM” value is listed as 1.60 ± 0.22 and the “Percentage inhibition of licking time” value worked out at 43.46%. For the same compound, in series [5], the “Temperature 1 h, Mean ± SEM” value is 95.25 ± 0.37 ^ns °F; the “Temperature 2 h, Mean ± SEM” value stood at 95.02 ± 0.35 °F; the “Temperature 3 h, Mean ± SEM” value turned out to be 94.97 ± 0.31 °F; the “Temperature After 24 h of Induction, Mean ± SEM” value was found to be 95.77 ± 0.26 °F. The “Temperature before Induction, Mean ± SEM” value in series [5] was found to be 95.20 ± 0.21 °F. For the same compound, in series [6], the “No. of Writhing, Mean ± SEM” value was 17.06 ± 1.08 and the “Percentage inhibition of writhing” value amounted to 54.12%. In series [7], the “Inflammation at 1 h … Mean ± SEM” value is reported as 4.35 ± 0.06 mm; the “Percent inhibition of paw edema at 1 h” value is reported as 1.1%; the “Inflammation at 2 h … Mean ± SEM” value came to 4.07 ± 0.02 mm; the “Percent inhibition of paw edema at 2 h” value came to 11.71%. Besides, in series [7], the “Inflammation at 3 h … Mean ± SEM” value is listed as 3.90 ± 0.04 mm; the “Percent inhibition of paw edema at 3 h” value is reported as 19.58%; the “Inflammation at 4 h (paw thickness), Mean ± SEM” value is on record as 3.75 ± 0.06 mm; the “Percent inhibition of paw edema at 4 h” value is given as 26.03%.

These data come from PMC5187951 (International Journal of Molecular Sciences, 2016).
